From ChEMBL document CHEMBL1781871, “Discovery and SAR of novel mGluR5 non-competitive antagonists not based on an MPEP chemotype” (Bioorg Med Chem Lett, 2009)

How the values were obtained:
[1] = target: T1, Metabotropic glutamate receptor 5 (Homo sapiens, UniProt P41594); assay: Positive allosteric modulation of mGluR5 at 30 uM relative to glutamate
Target sequence in this assay (P41594 21-1212 limits assumed): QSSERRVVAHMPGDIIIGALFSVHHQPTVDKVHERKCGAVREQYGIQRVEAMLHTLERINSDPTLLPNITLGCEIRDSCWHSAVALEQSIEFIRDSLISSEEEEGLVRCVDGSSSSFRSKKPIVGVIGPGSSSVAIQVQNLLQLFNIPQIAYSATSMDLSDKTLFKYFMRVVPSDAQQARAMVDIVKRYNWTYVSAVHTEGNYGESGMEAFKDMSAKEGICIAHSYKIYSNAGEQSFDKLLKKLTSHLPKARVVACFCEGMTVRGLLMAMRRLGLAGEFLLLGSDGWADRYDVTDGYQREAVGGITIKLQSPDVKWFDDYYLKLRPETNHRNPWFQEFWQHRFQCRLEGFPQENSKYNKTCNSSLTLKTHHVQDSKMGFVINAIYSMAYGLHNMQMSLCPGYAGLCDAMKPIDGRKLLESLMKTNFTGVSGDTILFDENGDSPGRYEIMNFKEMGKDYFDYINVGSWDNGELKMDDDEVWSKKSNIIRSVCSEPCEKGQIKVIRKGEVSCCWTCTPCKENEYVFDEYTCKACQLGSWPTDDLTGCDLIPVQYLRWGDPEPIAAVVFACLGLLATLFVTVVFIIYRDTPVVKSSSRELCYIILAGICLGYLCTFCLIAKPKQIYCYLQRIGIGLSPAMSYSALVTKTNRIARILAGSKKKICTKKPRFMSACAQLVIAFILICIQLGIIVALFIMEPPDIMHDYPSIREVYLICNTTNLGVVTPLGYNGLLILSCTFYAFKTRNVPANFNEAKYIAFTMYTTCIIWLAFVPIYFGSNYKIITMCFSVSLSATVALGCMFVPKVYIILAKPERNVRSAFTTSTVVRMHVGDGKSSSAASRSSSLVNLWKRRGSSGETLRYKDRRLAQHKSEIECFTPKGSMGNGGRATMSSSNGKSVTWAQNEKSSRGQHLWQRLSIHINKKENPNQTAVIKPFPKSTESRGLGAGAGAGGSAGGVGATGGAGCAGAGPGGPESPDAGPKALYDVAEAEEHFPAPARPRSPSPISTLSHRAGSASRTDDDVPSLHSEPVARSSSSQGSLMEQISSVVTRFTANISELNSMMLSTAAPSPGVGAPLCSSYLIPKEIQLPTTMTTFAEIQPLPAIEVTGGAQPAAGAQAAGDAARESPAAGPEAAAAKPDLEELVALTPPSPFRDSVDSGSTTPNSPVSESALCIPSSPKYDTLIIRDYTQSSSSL

[2] = target: T1, Metabotropic glutamate receptor 5; assay: Positive allosteric modulation of mGluR5
Target sequence in this assay (P41594 whole entry): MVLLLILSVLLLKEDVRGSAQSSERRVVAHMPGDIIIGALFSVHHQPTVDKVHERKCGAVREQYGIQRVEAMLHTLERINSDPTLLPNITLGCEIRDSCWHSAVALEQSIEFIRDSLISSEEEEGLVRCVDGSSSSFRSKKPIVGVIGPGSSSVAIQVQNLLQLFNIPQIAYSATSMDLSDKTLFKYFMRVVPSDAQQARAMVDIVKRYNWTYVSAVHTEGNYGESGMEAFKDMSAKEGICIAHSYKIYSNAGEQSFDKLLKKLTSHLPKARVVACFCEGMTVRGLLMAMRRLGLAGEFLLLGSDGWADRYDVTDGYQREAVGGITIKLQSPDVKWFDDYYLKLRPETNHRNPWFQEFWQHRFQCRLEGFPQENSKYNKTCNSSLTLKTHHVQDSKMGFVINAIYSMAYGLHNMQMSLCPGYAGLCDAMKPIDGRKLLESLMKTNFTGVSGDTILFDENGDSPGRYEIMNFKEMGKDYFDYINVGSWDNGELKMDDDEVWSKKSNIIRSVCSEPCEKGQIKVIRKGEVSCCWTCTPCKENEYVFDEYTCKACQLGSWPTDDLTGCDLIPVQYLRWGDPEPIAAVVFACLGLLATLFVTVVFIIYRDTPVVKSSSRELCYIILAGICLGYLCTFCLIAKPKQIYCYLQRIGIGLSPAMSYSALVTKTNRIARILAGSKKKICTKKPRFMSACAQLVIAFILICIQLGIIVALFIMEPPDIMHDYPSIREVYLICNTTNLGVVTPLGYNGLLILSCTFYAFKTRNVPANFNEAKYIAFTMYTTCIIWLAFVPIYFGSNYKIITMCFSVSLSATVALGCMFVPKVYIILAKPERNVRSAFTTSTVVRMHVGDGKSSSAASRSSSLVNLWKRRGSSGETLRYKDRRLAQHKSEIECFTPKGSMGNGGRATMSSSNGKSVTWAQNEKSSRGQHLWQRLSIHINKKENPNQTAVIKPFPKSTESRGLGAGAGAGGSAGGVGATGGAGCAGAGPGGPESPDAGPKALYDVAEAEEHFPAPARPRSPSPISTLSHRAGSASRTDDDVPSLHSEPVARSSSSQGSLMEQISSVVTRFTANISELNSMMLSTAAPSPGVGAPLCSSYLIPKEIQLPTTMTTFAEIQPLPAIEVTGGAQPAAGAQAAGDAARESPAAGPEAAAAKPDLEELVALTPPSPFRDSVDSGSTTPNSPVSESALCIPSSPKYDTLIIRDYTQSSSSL

[3] = target: T1, Metabotropic glutamate receptor 5; assay: Non-competitive antagonist activity at mGluR5; type: functional
Target sequence in this assay (P41594 whole entry): as above

[4] = target: T1, Metabotropic glutamate receptor 5; assay: Non-competitive antagonist activity at mGluR5 at 30 uM relative to glutamate; type: functional; set-up: scale not given: the % may be the effect or the level left
Target sequence in this assay (P41594 21-1212 limits assumed): as the sequence (P41594 21-1212 limits assumed) above

[5] = target: Metabotropic glutamate receptor 7 (Homo sapiens, UniProt Q14831); assay: Inhibition of mGluR7
[6] = target: Metabotropic glutamate receptor 2 (Homo sapiens, UniProt Q14416); assay: Inhibition of mGluR2
[7] = target: Metabotropic glutamate receptor 3 (Homo sapiens, UniProt Q14832); assay: Inhibition of mGluR3
[8] = target: Metabotropic glutamate receptor 8 (Homo sapiens, UniProt O00222); assay: Inhibition of mGluR8
[9] = target: Metabotropic glutamate receptor 4 (Homo sapiens, UniProt Q14833); assay: Inhibition of mGluR4
[10] = target: Metabotropic glutamate receptor 1 (Homo sapiens, UniProt Q13255); assay: Inhibition of mGluR1

Chain of Metabotropic glutamate receptor 2 (Q14416 whole entry): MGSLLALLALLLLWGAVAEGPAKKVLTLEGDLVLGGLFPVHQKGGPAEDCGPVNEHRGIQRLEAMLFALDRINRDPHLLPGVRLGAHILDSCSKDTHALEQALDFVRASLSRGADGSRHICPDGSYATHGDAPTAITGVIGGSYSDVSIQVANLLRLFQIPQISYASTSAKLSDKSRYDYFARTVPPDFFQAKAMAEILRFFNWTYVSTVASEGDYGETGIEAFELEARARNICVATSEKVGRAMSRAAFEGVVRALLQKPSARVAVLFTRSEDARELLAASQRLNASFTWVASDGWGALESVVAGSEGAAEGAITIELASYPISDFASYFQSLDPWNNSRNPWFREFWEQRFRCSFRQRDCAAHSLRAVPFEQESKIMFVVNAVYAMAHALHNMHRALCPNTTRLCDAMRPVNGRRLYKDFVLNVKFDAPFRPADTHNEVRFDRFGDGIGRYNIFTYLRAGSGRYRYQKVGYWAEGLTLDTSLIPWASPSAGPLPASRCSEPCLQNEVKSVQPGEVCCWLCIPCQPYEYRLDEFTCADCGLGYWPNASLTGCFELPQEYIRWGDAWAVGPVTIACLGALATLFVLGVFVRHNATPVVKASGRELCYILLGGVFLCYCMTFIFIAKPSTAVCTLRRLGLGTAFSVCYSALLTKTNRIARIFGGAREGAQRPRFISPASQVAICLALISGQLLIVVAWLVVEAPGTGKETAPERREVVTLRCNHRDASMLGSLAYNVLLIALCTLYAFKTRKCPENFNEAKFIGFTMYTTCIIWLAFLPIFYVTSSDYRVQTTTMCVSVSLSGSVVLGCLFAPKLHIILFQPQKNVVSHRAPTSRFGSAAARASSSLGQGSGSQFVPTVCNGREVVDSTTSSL
Chain of Metabotropic glutamate receptor 4 (Q14833 whole entry): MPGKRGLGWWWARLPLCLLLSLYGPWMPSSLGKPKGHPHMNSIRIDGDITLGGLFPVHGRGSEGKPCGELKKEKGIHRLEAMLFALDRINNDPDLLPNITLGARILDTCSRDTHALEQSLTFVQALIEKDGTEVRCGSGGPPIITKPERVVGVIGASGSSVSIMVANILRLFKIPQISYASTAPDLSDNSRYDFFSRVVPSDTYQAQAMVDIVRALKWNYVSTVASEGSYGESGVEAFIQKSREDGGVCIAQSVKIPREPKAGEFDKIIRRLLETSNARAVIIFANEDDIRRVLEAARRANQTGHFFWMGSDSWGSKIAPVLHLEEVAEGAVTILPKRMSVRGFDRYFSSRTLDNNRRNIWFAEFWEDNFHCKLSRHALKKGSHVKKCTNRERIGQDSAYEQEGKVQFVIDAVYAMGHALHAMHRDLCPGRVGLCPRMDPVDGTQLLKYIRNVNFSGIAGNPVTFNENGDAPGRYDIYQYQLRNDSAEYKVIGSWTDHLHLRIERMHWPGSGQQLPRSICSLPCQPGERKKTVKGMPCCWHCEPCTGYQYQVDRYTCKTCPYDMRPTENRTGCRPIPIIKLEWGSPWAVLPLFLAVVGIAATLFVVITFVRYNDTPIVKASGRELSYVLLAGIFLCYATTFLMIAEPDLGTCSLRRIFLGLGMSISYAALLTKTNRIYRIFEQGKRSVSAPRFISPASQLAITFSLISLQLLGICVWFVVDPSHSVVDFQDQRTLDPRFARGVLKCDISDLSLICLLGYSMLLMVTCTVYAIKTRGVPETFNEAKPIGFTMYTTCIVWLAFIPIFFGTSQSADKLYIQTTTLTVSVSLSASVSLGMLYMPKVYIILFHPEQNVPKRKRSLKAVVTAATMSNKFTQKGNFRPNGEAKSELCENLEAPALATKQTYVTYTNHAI

Structure (SMILES) | IC50 [3] | Activity [4] | other results
Nc1c(C(=O)c2ccc(F)cc2)oc2ncc(Br)cc12 | – | – | Activity [1]: 73.5%; EC50 [2]: 7.6 µM
O=C(C1CCCCC1)N1CCCC2(CCCCC2)C1 | > 30 µM | – | –
COc1ccccc1N1CCN(C(=O)C23CC4CC(CC(C4)C2)C3)CC1 | > 10 µM | 52% | –
Cc1cc(C(F)(F)F)c2c(N)c(C(=O)c3ccc(F)cc3)oc2n1 | 0.84 µM | 1.58% | –
O=C(N1CCN(c2nccs2)CC1)C12CC3CC(CC(C3)C1)C2 | – | 1.16% | IC50 [5]: > 30 µM; IC50 [6]: > 30 µM; IC50 [7]: > 30 µM; IC50 [8]: > 30 µM; IC50 [9]: > 30 µM
O=C(C1CC1)N1CCCC2(CCCCC2)C1 | > 10 µM | 40.6% | –
COCc1c(Cl)c(C)nc2oc(C(=O)c3ccc(F)cc3)c(N)c12 | – | – | Activity [1]: 38.3%; EC50 [2]: 6.5 µM
O=C(N1CCN(c2ccccn2)CC1)C12CC3CC(CC(C3)C1)C2 | 0.99 µM | 3.75% | –
Cc1cc(O)nc2oc(C(=O)c3ccc(F)cc3)c(N)c12 | – | – | Activity [1]: 32.9%
Cc1cc(C)c2c(N)c(C(=O)c3ccccc3)oc2n1 | > 10 µM | 36% | –
O=C(N1CCN(c2ccncc2)CC1)C12CC3CC(CC(C3)C1)C2 | > 30 µM | – | –
O=C(c1cnc2ccccc2n1)N1CCCC2(CCCCC2)C1 | 5.02 µM | 2.39% | –
O=C(C1CCC1)N1CCCC2(CCCCC2)C1 | – | 1.12% | IC50 [10]: > 30 µM; IC50 [5]: > 30 µM; IC50 [6]: > 30 µM; IC50 [7]: > 30 µM; IC50 [8]: > 30 µM; IC50 [9]: > 30 µM
O=C(C1CCCC1)N1CCCC2(CCCCC2)C1 | > 10 µM | 26.1% | –
O=C(CSc1ccccc1)N1CCCC2(CCCCC2)C1 | – | 4.23% | –
Cc1cc(=O)[nH]c2oc(C(=O)c3ccc(F)cc3)c(N)c12 | – | – | EC50 [2]: 6.1 µM

Now from value to compound, other results behind:

IC50 [3] | Activity [4] | Structure (SMILES) | other results
1.18 µM | 2.69% | O=C(c1cccs1)N1CCCC2(CCCCC2)C1 | –
> 30 µM | – | O=C(c1cccnc1)N1CCCC2(CCCCC2)C1 | –
> 10 µM | 52.1% | O=C(Cc1cccs1)N1CCCC2(CCCCC2)C1 | –
– | 3.68% | N#Cc1ccccc1N1CCN(C(=O)C23CC4CC(CC(C4)C2)C3)CC1 | –
> 10 µM | 30.2% | O=C(N1CCN(c2cccnc2)CC1)C12CC3CC(CC(C3)C1)C2 | –
> 10 µM | 56.2% | Cc1ccc(C(=O)N2CCCC3(CCCCC3)C2)cc1 | –
> 30 µM | – | O=C(N1CCN(c2ccccc2Cl)CC1)C12CC3CC(CC(C3)C1)C2 | –
9.3 µM | 19.4% | Cc1cc(C)c2c(N)c(C(=O)c3ccc(F)cc3F)oc2n1 | –
1.54 µM | 2.64% | O=C(c1ccco1)N1CCCC2(CCCCC2)C1 | –
